Measurements as given in US20190030053A1, “COMPOSITION FOR INCREASING EXPRESSION OF PGC-1alpha” (BENEBIOSIS CO., LTD., priority 2016, published 2019).

Experiments:
[1] = system: Huntington's disease model mice (R6/2); assay: Rotarod travel test in Huntington's disease models; format: in vivo, mouse; conditions: R6/2 mice, oral 0.1 mg/kg/day
From the text: In order to investigate the changes in gene expression and cognitive ability by the treatment with SL (3′-SL & 6′-SL) compositions in Huntington's brain disease model, 4-week-old mice were purchased from Central Lab Animal (Korea). Water was freely accessible, and a commercially available pellet feed (Dooyeul Biotech, Korea) was given for one week. At 5 weeks of age, the mice were divided into three groups (composed of eight mice for each group): Eight 5-week-old male c57/BL6 mice (normal mice; initial body weight, average 25.3±4.3 g) treated with a normal diet were used for a control group. […]
In addition, the behavior improvement was evaluated through the rotarod travel time changes of the (Huntington's disease model) group, (Huntington's disease model+3′-SL) group, and (Huntington's disease model+6′-SL) group, compared with the normal mouse with a normal diet. […] The rotarod travel time was measured by using a rotarod device (rod accelerating at a revolution speed of 4-40 rpm through 3 minutes, Jungdo Instruments, Korea). After 4-week-old mice were practiced on the rotarod test, the rotarod test was performed from 5 weeks of age, and the mean time to fall was measured. […]

[2] = system: mouse aortic smooth muscle cells (MASMs); assay: Intracellular H2O2 (ROS values, H2DCFDA) in MASMs of arteriosclerosis model mice; format: cell-based; conditions: MASMs from PGC-1α+/+ApoE−/− mice; SL added to culture liquid
Procedure: For cell-level tests, mouse aortic smooth muscle cells (MASMs) were isolated from the control group fed with a high-fat diet (Rodent Diet with 60 kcal % fat) without SL administration (Griendling et al., 1991), and the SL (3′-SL & 6′-SL) compositions were added to the culture liquid, followed by comparison. For intracellular H2O2 measurement (ROS values), the cells were cultured in 12-well culture plates immersed in 0.1% bovine calf serum. The intracellular ROS values were measured using H2DCFDA. For assay, the cells were cultured together with H2DCFDA in HBSS buffer for 30 minutes. The cells were trypsinized, washed, and lysed in HBSS. The fluorescence values were measured immediately by a CytoFluor plate reader (FIG. 19a).
In FIGS. 19a and 19b, MASMs were extracted from the model mouse (PGC-1α^+/+ApoE^−/−) control group, and the SL (3′-SL & 6′-SL) compositions were added to the culture liquid to conduct comparison.
FIGS. 19a and 19b show the measurement results of intercellular H2O2 (ROS values) (FIG. 19a) and the measurement results of mitochondrial superoxide production (FIG. 19b). MASMs were extracted from the model mice (PGC-1α^+/+ApoE^−/−), and the SL (3′-SL & 6′-SL) compositions were added to the culture liquid to conduct comparison.

telomerase = assay: Telomerase activity (TRAP) in vivo, aorta of arteriosclerosis models (ApoE−/−); design: species or system mouse; conditions: ApoE−/− mice, high-fat diet, oral 0.1 mg/kg/day, 6 weeks
From the text: In order to investigate the aging-related chronic disease preventing effect through the control of telomerase functions and DNA damage by the treatment with SL (3′-SL & 6′-SL) compositions in arteriosclerosis models, two types of 24-week-old male model mice (PGC-1α^+/+ApoE^−/−) were randomly grouped into three different dietary treatment groups (8 animals per group) below, and the diets were maintained for 6 weeks (a total of 24 animals): • Control group: Arteriosclerosis models fed with a high-fat diet (Rodent Diet with 60 kcal % fat) (8 animals) • 3′-SL administration group: Arteriosclerosis models treated with 3′-sialyllactose (3′-SL, Sigma) (oral administration of 0.1 mg per kg of mouse weight per day) in addition to the high-fat diet group (8 animals) • 6′-SL administration group: Arteriosclerosis models treated with 6′-sialyllactose (6′-SL, Sigma) (oral administration of 0.1 mg per kg of mouse weight per day) in addition to the high-fat diet group (8 animals)
In FIG. 20, the telomerase activity was measured using TRAP protocol (Wright et al., 1995). […] The fluorescence of the thus obtained TRAP product was measured using a fluorescent plate reader to quantify telomerase activity. Relative telomerase activity was normalized by the ratio of native […] to sulforhodamine (internal control standard), expressed as a percentage. […]

SMILES	rotarod travel time vs SL non-administration group [1]	intracellular H2O2 (ROS values) [2]	telomerase activity in aorta sample (in vivo) (telomerase)
CC(=O)N[C@H]1[C@H]([C@H](O)[C@H](O)CO)O[C@@](O[C@H]2[C@@H](O)[C@@H](CO)O[C@@H](O[C@H]3[C@H](O)[C@@H](O)C(O)O[C@@H]3CO)[C@@H]2O)(C(=O)O)C[C@@H]1O (stereo partly drawn) [3′-SL, α-NeuNAc-(2→3)-β-D-Gal-(1→4)-D-Glc]	less than that of 6′-SL	dropped the ROS values	increased telomerase activity
CC(=O)N[C@H]1[C@H]([C@H](O)[C@H](O)CO)O[C@@](OC[C@H]2O[C@@H](O[C@H]3[C@H](O)[C@@H](O)[C@H](O)O[C@@H]3CO)[C@H](O)[C@@H](O)[C@H]2O)(C(=O)O)C[C@@H]1O [6′-SL, α-NeuNAc-(2→6)-β-D-Gal-(1→4)-D-Glc]	increased	dropped the ROS values	increased telomerase activity
